As usually defined, the IC50 is the point on the concentration scale where inhibition reaches its midpoint.

Data on seven molecules can be found in patent US9890185B2, “Urea derivatives useful as kinase inhibitors” (Respivert Limited, priority 2013, dated 2018).

In test [1] the target is p38 MAPKα isoform (MAPK14) (Homo sapiens (Human), UniProt Q16539). The experiment in a line: p38 MAPKα enzyme inhibition (FRET, Z-LYTE, Method 2). Type of test: biochemical. Put shortly: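 Z-LYTE FRET: p38 MAPKα (80 ng/mL for Method 1, 200 ng/mL for Method 2, pre-dilution) preincubated 2 hr RT with compound (4–0.004 μg/mL solutions), activity read via MAPKAP-K2 phosphorylation after 1 hr RT and 1 hr protease development. Coumarin/fluorescein ratio gives phosphorylation; % inhibition versus uninhibited control, IC50 from concentration-response curve.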
Chain of p38 MAPKα isoform (MAPK14) (Q16539 whole entry, canonical isoform): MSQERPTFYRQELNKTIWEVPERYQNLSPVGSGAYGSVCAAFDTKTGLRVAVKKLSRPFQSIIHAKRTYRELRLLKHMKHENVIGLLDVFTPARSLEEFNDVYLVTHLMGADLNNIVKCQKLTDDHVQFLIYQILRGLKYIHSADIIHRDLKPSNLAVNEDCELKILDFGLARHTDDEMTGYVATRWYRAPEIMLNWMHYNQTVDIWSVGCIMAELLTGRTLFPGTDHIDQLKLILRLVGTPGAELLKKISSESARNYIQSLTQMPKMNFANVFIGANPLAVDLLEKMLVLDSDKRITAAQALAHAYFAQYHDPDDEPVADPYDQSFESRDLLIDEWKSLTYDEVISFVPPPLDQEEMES

In test [2] the test system is PBMCs. The experiment in a line: LPS-induced IL-8 release in PBMC cells (assay b). Type of test: cell-based, human. The settings on record: Homo sapiens, PBMC; LPS-stimulated PBMCs; read-out: IC50 Values for Inhibition of Cytokine Release, PBMCs IL-8. Put shortly: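 Human PBMCs from healthy donors, isolated by density gradient, were pretreated with compound for 2 h and then stimulated with 1 ng/mL LPS (E. coli 0111:B4) for 24 h at 37° C, 5% CO2. Supernatant IL-8 and TNFα were measured by sandwich ELISA, and IC50 was taken from the dose-response curve.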

For test [3], the system named is PBMCs. The experiment in a line: IFN gamma release in CD3/CD28 stimulated PBMC cells (assay c). Type of test: cell-based. The settings on record: Homo sapiens, read-out: IC50 Values for Inhibition of Cytokine Release, PBMCs IFNγ. Put shortly:
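Healthy-donor PBMCs (density-gradient isolated) stimulated on plates pre-coated with anti-CD3 (0.3 μg/mL) and anti-CD28 (3 μg/mL), with compound, for 3 days under normal culture conditions. IL-2 and IFN gamma in supernatants measured by sandwich ELISA; IC50 from dose-response curve.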

The test system of a further test is TNBS-induced colitis. The experiment in a line: TNBS-induced colitis in mice (in vivo assay iv). Also noted: species or system BDF1 mice; TNBS Ulcer grade / TNBS LP inflammation: scale not given here. As to conditions: SMEDDS vehicle; for Activity in in vivo model of colonic inflammation (histopathology analysis) / Inflammatory cell infiltrate in the reticular and laminar propria zone: TNBS colitis over 2 days; for TNBS LP inflammation / TNBS Ulcer grade: mice, 5 mg/kg orally, conducted over 2 days, histopathology; for Ulcer grade and epithelial repair compared to the vehicle control: dosed orally at 5 mg/kg, 2 days. On the procedure: Non-fasted, 10-12 week old, male BDF1 mice are dosed by oral gavage twice daily with either vehicle (5 mL/kg), reference item (Budesonide 2.5 mg/kg) or test compound (1 or 5 mg/kg) one day before (Day −1) stimulation of the inflammatory response by treatment with 2,4,6-trinitrobenzenesulphonic acid (TNBS) (15 mg/mL in 50% ethanol/50% saline). On Day 0 of the study TNBS (200 μL) is administered intra-colonically via a plastic catheter with BID dosing of the vehicle, reference or test compound continuing for 2 or 4 days. During the study animals are weighed every day and stool observations are made and recorded as a score, based on stool consistency. At the time of sacrifice on Day 2 (or Day 4) the large intestine is removed and the length and weight recorded. Sections of the colon are taken for histopathology scoring to determine disease severity.

The target in another test is Lck (Homo sapiens (Human), UniProt P06239). In words: KINOMEscan enzyme binding assay (Lck). The settings on record: KINOMEscan technology; read-out: Dissociation Constant, Lck. As for the experimental part:
Kinase enzyme binding activities of compounds disclosed herein may be determined using a proprietary assay which measures active site-directed competition binding to an immobilized ligand (Fabian, M. A. et al., Nature Biotechnol., 2005, 23:329-336). These assays may be conducted by DiscoverX (formerly Ambit; San Diego, Calif.). The percentage inhibition produced by incubation with a test compound may be calculated relative to the non-inhibited control.

A further test relates to HT29 cells. In words: IL-1β-induced IL-8 release in HT29 cells (assay d). Type of test: cell-based. The settings on record: Homo sapiens, HT-29; IL-1β-stimulated HT29 cells; read-out: IC50 Values for Inhibition of Cytokine Release, HT29 cells IL-8. On the procedure:
HT29 cells, a human colon adenocarcinoma cell line, are plated in a 96 well plate (24 hrs) and pre-treated with compounds at the desired concentration for 2 hours before addition of 5 ng/mL of IL-1β (Abcam) for 24 hours. Supernatants are harvested for IL-8 quantification by Sandwich ELISA (Duo-set, R&D System). The IC50 is determined from the dose response curve.

Chain of Lck (P06239 whole entry): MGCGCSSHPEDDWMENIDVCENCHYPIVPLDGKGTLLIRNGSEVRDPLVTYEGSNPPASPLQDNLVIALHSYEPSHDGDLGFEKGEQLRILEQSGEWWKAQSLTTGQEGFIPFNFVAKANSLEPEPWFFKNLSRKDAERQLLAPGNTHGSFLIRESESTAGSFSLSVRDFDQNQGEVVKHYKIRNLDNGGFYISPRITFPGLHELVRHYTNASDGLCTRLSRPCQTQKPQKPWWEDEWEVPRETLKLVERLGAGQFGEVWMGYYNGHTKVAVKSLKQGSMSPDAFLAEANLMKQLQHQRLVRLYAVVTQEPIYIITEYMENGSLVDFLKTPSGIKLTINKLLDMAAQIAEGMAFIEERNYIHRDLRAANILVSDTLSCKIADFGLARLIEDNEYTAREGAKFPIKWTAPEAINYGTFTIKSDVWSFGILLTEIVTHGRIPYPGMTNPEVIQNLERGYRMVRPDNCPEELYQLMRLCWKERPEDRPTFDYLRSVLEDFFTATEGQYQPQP

`COc1c(NC(=O)Nc2ccc(Oc3ccnc(Nc4ccccc4)c3)c3ccccc23)cc(C(C)(C)C)cc1C(=O)NCCN1CCOCC1` [Example 14, 5-(tert-Butyl)-2-methoxy-N-(2-morpholinoethyl)-3-(3-(4-((2-(phenylamino)pyridin-4-yl)oxy)naphthalen-1-yl)ureido)benzamide]: half-maximal inhibition in test [1] (IC50) was put at 392 nM. Also, the IC50 in the test on PBMCs [2] worked out at 3.3 nM. Further, in the test on PBMCs [3], the IC50 was determined as 16.3 nM. Besides, in the test on TNBS-induced colitis, the “Activity in in vivo model of colonic inflammation (histopathology analysis)” value (from here on “Activity … (histopathology analysis)”) is recorded as “significant activity”; the “Inflammatory cell infiltrate in the reticular and laminar propria zone” value (shortened to “Inflammatory cell infiltrate”) is given as “marked reductions”; the “TNBS LP inflammation” value stood at 3.6 ± 0.2; the “TNBS Ulcer grade” value came to 3.5 ± 0.5.

As for `COc1c(NC(=O)Nc2ccc(Oc3ccnc(Nc4ccccc4)c3)c3ccccc23)cc(C(C)(C)C)cc1[S+](C)[O-]` (racemic) [Example 12, 1-(5-(tert-Butyl)-2-methoxy-3-(methylsulfinyl)phenyl)-3-(4-((2-(phenylamino)pyridin-4-yl)oxy)naphthalen-1-yl)urea], on Lck, the Kd amounted to 3.6 nM. In addition, the IC50 is 193 nM in test [1], 3.6 nM in the test on PBMCs [2], 8.6 nM in the test with PBMCs [3] and 8.6 nM in the test on HT29 cells.

Take `COCCOCCOCCOc1cc(Nc2cc(Oc3ccc(NC(=O)Nc4cc(C(C)(C)C)cc(S(C)(=O)=O)c4OC)c4ccccc34)ccn2)cc(OC)c1` [Example 9, 1-(5-(tert-Butyl)-2-methoxy-3-(methylsulfonyl)phenyl)-3-(4-((2-((3-methoxy-5-(2-(2-(2-methoxyethoxy)ethoxy)ethoxy)phenyl)amino)pyridin-4-yl)oxy)naphthalen-1-yl)urea]: the Kd at Lck was determined as 8.6 nM. Also, it took 290 nM to reach half-maximal inhibition in test [1] (IC50). Also, in the test on PBMCs [2], the IC50 is 3.5 nM. The IC50 in the test with PBMCs [3] came out at 9.4 nM. Besides, in the test on HT29 cells, the IC50 amounted to 4.3 nM. Besides, in the test on TNBS-induced colitis, the “Activity … (histopathology analysis)” value was “significant activity”; the “Inflammatory cell infiltrate” value was “marked reductions”; the “Ulcer grade and epithelial repair compared to the vehicle control” value is given as “marked improvements”; the “TNBS LP inflammation” value is given as 2.9 ± 0.3. Besides, the “TNBS Ulcer grade” value in the test with TNBS-induced colitis was 3.6 ± 0.3.

Turning to `COc1cc(Nc2cc(Oc3ccc(NC(=O)Nc4cc(C(C)(C)C)cc(CC(N)=O)c4OC)c4ccccc34)ccn2)cc(OC)c1` [Example 30, 2-(5-(tert-Butyl)-3-(3-(4-((2-((3,5-dimethoxyphenyl)amino)pyridin-4-yl)oxy)naphthalen-1-yl)ureido)-2-methoxyphenyl)acetamide], half-maximal inhibition in test [1] (IC50) was put at 132 nM. Moreover, the IC50 in the test with PBMCs [2] came to 1.7 nM. Besides, the IC50 in the test on PBMCs [3] came out at 6.4 nM. For the same molecule, in the test on TNBS-induced colitis, the “Activity … (histopathology analysis)” value is “significant activity”; the “Inflammatory cell infiltrate” value is given as “marked reductions”; the “Ulcer grade and epithelial repair compared to the vehicle control” value was “marked improvements”; the “TNBS LP inflammation” value stood at 2.5 ± 0.4. Also, the “TNBS Ulcer grade” value with TNBS-induced colitis was 3.1 ± 0.4.

For the molecule `COc1cc(Nc2cc(Oc3ccc(NC(=O)Nc4cc(C(C)(C)C)cc(P(C)(C)=O)c4OC)c4ccccc34)ccn2)cc(C(N)=O)c1` [Example 37, 3-((4-((4-(3-(5-(tert-butyl)-3-(dimethylphosphoryl)-2-methoxyphenyl)ureido)-naphthalen-1-yl)oxy)pyridin-2-yl)amino)-5-methoxybenzamide], the Kd on Lck worked out at 1.2 nM. Moreover, the IC50 amounted to 62 nM in test [1], 1.7 nM in the test with PBMCs [2] and 0.7 nM in the test on PBMCs [3].

On to `COc1c(CC(N)=O)cc(C(C)(C)C)cc1NC(=O)Nc1ccc(Oc2ccnc(Nc3ccccc3)c2)c2ccccc12` [Example 13, 2-(5-(tert-Butyl)-2-methoxy-3-(3-(4-((2-(phenylamino)pyridin-4-yl)oxy)naphthalen-1-yl)ureido)phenyl)acetamide], for which half-maximal inhibition in test [1] (IC50) required 108 nM. Besides, the IC50 with PBMCs [2] was 6.4 nM. Besides, in the test with PBMCs [3], the IC50 turned out to be 50.4 nM. Also, the IC50 in the test on HT29 cells was 18.2 nM. Moreover, in the test with TNBS-induced colitis, the “Activity … (histopathology analysis)” value is given as “significant activity”; the “Inflammatory cell infiltrate” value is “marked reductions”; the “Ulcer grade and epithelial repair compared to the vehicle control” value is on record as “marked improvements”; the “TNBS LP inflammation” value is 2.8 ± 0.5. Also, the “TNBS Ulcer grade” value in the test on TNBS-induced colitis is 2.6 ± 0.7.

Consider `COc1c(CS(C)(=O)=O)cc(C(C)(C)C)cc1NC(=O)Nc1ccc(Oc2ccnc(Nc3ccccc3)c2)c2ccccc12` [Example 19, 1-(5-(tert-Butyl)-2-methoxy-3-((methylsulfonyl)methyl)phenyl)-3-(4-((2-(phenylamino)pyridin-4-yl)oxy)naphthalen-1-yl)urea], for which the IC50 worked out at 208 nM in test [1], 6.2 nM in the test on PBMCs [2], 26.8 nM with PBMCs [3] and 8.6 nM in the test on HT29 cells.
